Data reported in ChEMBL document CHEMBL4680138, “A 18β-glycyrrhetinic acid conjugate with Vorinostat degrades HDAC3 and HDAC6 with improved antitumor effects” (Eur J Med Chem, 2020).
Active and inactive are the calls of the source. The rule behind the calls is not given here.

What was measured:
HL-60 [1] = experiment: Upregulation of acetylated alpha-tubulin level in human HL-60 cells at 2 uM measured after 12 hrs by Western blot analysis; assay type: functional, cell-based
HL-60 [2] = experiment: Induction of apoptosis in human HL-60 cells assessed as necrotic cells at 2 uM measured after 24 hrs by Annexin-V/FITC and propidium iodide staining based flow cytometry (reference value: 1.01 %); assay type: functional
HL-60 [3] = experiment: Induction of apoptosis in human HL-60 cells assessed as increase in accumulation at sub-G1 phase at 1 uM after 24 hrs by propidium iodide staining based flow cytometry (reference value: 2.72 %); assay type: functional
HL-60 [4] = experiment: Induction of apoptosis in human HL-60 cells assessed as early apoptotic cells at 0.5 uM measured after 24 hrs by Annexin-V/FITC and propidium iodide staining based flow cytometry (reference value: 2.46 %); assay type: functional
HL-60 [5] = experiment: Induction of apoptosis in human HL-60 cells assessed as early apoptotic cells at 2 uM measured after 24 hrs by Annexin-V/FITC and propidium iodide staining based flow cytometry (reference value: 2.46 %); assay type: functional
[6] = target: T1, Protein deacetylase HDAC6 (Homo sapiens, UniProt Q9UBN7); experiment: Inhibition of recombinant C-terminal FLAG-tagged full length human HDAC6 expressed in baculovirus infected Sf9 cells using Boc-Lys(Ac)-AMC as substrate preincubated for 15 mins followed by substrate addition and measured after 60 mins by fluorescence based assay
T1 sequence (Q9UBN7 whole entry): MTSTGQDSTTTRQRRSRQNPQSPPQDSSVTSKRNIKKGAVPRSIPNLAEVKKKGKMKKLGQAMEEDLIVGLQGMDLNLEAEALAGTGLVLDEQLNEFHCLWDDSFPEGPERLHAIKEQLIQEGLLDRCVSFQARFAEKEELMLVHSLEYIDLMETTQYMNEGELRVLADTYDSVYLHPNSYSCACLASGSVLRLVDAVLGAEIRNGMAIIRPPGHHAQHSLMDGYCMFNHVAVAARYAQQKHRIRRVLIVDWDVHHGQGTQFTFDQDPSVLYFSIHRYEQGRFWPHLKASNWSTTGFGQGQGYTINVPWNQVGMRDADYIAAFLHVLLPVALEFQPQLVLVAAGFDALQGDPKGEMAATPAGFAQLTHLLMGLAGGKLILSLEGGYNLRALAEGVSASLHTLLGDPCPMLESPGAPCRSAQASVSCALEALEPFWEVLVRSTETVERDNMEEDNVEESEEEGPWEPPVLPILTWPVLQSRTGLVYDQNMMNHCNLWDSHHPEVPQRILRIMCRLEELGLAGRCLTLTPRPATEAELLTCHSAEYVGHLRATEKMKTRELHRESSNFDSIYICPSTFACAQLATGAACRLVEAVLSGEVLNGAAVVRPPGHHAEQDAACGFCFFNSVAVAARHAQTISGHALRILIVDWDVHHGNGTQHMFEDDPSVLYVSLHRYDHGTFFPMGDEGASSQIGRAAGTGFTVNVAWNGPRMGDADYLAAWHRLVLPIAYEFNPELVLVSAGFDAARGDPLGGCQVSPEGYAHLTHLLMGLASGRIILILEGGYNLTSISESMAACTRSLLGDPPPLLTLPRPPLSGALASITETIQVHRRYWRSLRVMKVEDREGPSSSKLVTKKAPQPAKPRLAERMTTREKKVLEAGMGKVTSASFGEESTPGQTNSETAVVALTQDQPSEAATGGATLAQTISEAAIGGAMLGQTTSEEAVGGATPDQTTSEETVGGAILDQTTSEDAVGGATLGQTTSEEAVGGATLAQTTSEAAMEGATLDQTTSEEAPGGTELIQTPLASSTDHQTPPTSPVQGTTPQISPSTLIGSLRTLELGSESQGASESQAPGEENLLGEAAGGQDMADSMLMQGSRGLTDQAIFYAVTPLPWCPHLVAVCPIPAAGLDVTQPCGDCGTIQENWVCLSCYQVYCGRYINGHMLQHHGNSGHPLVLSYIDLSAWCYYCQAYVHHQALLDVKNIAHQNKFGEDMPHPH

HL-60 [7] = experiment: Induction of apoptosis in human HL-60 cells assessed as necrotic cells at 1 uM measured after 24 hrs by Annexin-V/FITC and propidium iodide staining based flow cytometry (reference value: 1.01 %); assay type: functional
HL-60 [8] = experiment: Upregulation of acetylated H3 level in human HL-60 cells at 2 uM measured after 12 hrs by Western blot analysis; assay type: functional, cell-based
HL-60 [9] = experiment: Antiproliferative activity against human HL-60 cells assessed as cell growth inhibition after 72 hrs by trypan blue staining based cell counting assay; assay type: functional; details: HL-60, 72 h
HL-60 [10] = experiment: Induction of apoptosis in human HL-60 cells assessed as late apoptotic cells at 0.5 uM measured after 24 hrs by Annexin-V/FITC and propidium iodide staining based flow cytometry (reference value: 7.24 %); assay type: functional
[11] = target: Histone deacetylase 3/Nuclear receptor corepressor 2 (HDAC3/NCoR2) (Homo sapiens, UniProt O15379); experiment: Inhibition of C-terminal His-tagged recombinant human HDAC3 (1 to 428 residues)/N-terminal GST-tagged recombinant human NCoR2 (395 to 489 residues) co-expressed in baculovirus infected Sf9 cells using Boc-Lys(Ac)-AMC as substrate preincubated for 15 mins followed by substrate addition and measured after 60 mins by fluorescence based assay
HL-60 [12] = experiment: Induction of apoptosis in human HL-60 cells assessed as increase in accumulation at sub-G1 phase at 0.5 uM after 24 hrs by propidium iodide staining based flow cytometry (reference value: 2.72 %); assay type: functional
[13] = AUC (0 to infinity) in Sprague-Dawley rat at 5 mg/kg, iv measured up to 24 hrs by LC-MS/MS analysis; assay type: ADME, organism-based; parameters: route intravenous, dose 5 mg/kg, time <=24; details: in vivo
HL-60 [14] = experiment: Induction of apoptosis in human HL-60 cells assessed as late apoptotic cells at 2 uM measured after 24 hrs by Annexin-V/FITC and propidium iodide staining based flow cytometry (reference value: 7.24 %); assay type: functional
[15] = Half life in Sprague-Dawley rat at 5 mg/kg, iv measured up to 24 hrs by LC-MS/MS analysis; assay type: ADME, organism-based; details: in vivo
Histone deacetylase 1 = Histone deacetylase 1 (Homo sapiens, UniProt Q13547); experiment: Inhibition of recombinant human C-terminal FLAG/His-tagged HDAC1 (1 to 482 residues) expressed in Sf9 insect cells using Boc-Lys (Ac)-AMC as substrate preincubated for 15 mins followed by substrate addition and measured after 60 mins by fluorescence based assay
HL-60 [16] = experiment: Induction of apoptosis in human HL-60 cells assessed as live cells at 2 uM measured after 24 hrs by Annexin-V/FITC and propidium iodide staining based flow cytometry (reference value: 89.29 %); assay type: functional
HL-60 [17] = experiment: Induction of apoptosis in human HL-60 cells assessed as live cells at 1 uM measured after 24 hrs by Annexin-V/FITC and propidium iodide staining based flow cytometry (reference value: 89.29 %); assay type: functional
HL-60 [18] = experiment: Induction of apoptosis in human HL-60 cells assessed as late apoptotic cells at 1 uM measured after 24 hrs by Annexin-V/FITC and propidium iodide staining based flow cytometry (reference value: 7.24 %); assay type: functional
Histone deacetylase 2 = Histone deacetylase 2 (Homo sapiens, UniProt Q92769); experiment: Inhibition of recombinant human HDAC2 expressed in baculovirus infected Sf9 cells using Boc-Lys(Ac)-AMC as substrate preincubated for 15 mins followed by substrate addition and measured after 60 mins by fluorescence based assay; assay type: cell-based
HL-60 [19] = experiment: Induction of apoptosis in human HL-60 cells assessed as early apoptotic cells at 1 uM measured after 24 hrs by Annexin-V/FITC and propidium iodide staining based flow cytometry (reference value: 2.46 %); assay type: functional
HL-60 [20] = experiment: Induction of apoptosis in human HL-60 cells assessed as increase in accumulation at sub-G1 phase at 2 uM after 24 hrs by propidium iodide staining based flow cytometry (reference value: 2.72 %); assay type: functional
HL-60 [21] = experiment: Induction of apoptosis in human HL-60 cells assessed as necrotic cells at 0.5 uM measured after 24 hrs by Annexin-V/FITC and propidium iodide staining based flow cytometry (reference value: 1.01 %); assay type: functional
PC-3 = experiment: Cytotoxicity against human PC-3 cells assessed as reduction in cell viability after 96 hrs by MTT assay; assay type: functional, cell-based; details: PC-3, 96 h
[22] = Cmax in Sprague-Dawley rat at 5 mg/kg, iv measured up to 24 hrs by LC-MS/MS analysis; assay type: ADME, organism-based; parameters: route intravenous, dose 5 mg/kg, time <=24; details: in vivo
HL-60 [23] = experiment: Induction of apoptosis in human HL-60 cells assessed as live cells at 0.5 uM measured after 24 hrs by Annexin-V/FITC and propidium iodide staining based flow cytometry (reference value: 89.29 %); assay type: functional
HL-60 [24] = experiment: Upregulation of PARP cleavage in human HL-60 cells at 2 uM measured after 12 hrs by Western blot analysis; assay type: functional, cell-based

Sequence of Histone deacetylase 2 (Q92769 whole entry): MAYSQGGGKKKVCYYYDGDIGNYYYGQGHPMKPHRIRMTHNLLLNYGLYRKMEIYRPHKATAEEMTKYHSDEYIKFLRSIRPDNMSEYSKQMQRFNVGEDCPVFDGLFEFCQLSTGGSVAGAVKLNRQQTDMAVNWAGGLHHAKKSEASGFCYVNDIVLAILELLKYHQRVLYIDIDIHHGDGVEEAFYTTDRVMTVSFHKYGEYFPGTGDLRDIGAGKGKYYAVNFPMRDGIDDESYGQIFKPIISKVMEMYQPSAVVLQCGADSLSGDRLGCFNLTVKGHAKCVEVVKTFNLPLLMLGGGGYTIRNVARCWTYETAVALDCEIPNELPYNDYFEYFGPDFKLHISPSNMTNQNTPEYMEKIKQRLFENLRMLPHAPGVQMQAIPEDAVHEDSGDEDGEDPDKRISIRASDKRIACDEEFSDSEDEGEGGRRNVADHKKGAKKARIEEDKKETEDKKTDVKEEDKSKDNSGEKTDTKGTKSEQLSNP
Sequence of Histone deacetylase 3/Nuclear receptor corepressor 2 (HDAC3/NCoR2) (O15379 whole entry, the tested form may be a part): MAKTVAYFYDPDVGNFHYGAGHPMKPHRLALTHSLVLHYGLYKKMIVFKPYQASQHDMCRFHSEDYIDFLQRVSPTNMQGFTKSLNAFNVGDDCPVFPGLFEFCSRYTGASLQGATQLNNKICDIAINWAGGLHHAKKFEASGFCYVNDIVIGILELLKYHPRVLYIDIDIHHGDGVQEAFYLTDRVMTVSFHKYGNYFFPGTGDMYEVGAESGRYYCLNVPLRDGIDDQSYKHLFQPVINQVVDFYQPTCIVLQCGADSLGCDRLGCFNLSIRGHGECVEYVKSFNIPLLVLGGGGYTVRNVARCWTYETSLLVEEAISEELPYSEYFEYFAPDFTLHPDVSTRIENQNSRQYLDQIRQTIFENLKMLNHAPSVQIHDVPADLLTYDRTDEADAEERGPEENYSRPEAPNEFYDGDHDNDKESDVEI
Sequence of Histone deacetylase 3/Nuclear receptor corepressor 2 (HDAC3/NCoR2) (Q9Y618 whole entry, further chain, the tested form may be a part): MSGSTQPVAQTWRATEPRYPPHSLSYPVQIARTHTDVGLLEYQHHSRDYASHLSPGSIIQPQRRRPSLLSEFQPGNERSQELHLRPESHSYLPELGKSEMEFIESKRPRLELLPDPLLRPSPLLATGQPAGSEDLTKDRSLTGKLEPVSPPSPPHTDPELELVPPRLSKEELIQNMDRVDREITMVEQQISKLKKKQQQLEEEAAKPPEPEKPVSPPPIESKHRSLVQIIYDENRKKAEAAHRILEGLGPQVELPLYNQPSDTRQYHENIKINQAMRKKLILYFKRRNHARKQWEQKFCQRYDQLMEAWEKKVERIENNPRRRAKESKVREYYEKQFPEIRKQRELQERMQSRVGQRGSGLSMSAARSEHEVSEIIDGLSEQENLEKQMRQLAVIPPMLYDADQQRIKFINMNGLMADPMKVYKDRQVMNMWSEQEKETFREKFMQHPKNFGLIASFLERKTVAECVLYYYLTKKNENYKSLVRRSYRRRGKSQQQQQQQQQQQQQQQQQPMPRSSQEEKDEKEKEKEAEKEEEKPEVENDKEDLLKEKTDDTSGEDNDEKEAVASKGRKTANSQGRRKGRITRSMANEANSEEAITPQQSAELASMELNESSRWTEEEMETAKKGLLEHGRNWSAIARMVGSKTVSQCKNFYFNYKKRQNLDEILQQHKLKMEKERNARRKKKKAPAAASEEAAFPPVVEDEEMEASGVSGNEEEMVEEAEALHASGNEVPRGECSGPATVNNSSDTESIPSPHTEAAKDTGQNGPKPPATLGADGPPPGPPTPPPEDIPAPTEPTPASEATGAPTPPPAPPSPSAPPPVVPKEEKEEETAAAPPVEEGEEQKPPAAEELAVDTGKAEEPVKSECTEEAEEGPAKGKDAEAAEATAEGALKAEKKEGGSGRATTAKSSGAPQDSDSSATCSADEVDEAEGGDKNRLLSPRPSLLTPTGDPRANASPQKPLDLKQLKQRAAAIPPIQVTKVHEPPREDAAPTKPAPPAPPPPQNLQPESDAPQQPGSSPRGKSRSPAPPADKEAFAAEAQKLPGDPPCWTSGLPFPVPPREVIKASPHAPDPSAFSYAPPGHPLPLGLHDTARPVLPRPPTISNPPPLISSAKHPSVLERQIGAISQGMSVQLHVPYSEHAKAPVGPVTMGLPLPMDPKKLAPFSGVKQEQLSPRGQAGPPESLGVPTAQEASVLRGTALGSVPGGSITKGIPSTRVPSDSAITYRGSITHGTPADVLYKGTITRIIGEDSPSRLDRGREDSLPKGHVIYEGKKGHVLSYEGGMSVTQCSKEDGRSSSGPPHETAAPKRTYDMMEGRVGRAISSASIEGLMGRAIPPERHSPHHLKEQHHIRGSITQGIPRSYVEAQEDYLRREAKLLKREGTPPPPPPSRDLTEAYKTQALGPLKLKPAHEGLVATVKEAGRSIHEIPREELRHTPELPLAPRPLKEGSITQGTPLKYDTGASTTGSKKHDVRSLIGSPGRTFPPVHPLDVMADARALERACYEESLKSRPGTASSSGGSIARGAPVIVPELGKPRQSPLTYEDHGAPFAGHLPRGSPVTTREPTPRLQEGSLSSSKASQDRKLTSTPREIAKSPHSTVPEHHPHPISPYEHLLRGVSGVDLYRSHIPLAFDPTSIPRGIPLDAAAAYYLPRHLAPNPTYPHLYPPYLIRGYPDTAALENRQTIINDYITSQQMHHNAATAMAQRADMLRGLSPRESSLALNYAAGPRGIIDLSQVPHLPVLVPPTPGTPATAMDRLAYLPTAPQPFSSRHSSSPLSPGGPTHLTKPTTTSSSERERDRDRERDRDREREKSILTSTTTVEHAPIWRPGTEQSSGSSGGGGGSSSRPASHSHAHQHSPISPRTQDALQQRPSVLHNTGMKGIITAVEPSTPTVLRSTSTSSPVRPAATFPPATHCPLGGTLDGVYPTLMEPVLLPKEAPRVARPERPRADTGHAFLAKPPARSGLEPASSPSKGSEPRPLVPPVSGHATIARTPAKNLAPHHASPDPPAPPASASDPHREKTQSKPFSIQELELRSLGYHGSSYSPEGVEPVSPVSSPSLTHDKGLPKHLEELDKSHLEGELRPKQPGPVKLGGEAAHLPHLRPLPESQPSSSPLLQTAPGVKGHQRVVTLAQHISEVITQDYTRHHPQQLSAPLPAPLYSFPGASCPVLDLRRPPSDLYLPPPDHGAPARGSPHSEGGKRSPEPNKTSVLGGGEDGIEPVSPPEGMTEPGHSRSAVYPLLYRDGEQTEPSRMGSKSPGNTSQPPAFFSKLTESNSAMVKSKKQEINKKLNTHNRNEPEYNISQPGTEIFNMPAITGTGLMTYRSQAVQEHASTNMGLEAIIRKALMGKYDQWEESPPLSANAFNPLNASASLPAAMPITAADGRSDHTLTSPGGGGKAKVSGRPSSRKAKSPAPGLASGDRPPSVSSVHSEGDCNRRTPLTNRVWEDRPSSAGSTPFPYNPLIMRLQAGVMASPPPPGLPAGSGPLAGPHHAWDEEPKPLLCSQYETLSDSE
Sequence of Histone deacetylase 1 (Q13547 whole entry, the tested form may be a part): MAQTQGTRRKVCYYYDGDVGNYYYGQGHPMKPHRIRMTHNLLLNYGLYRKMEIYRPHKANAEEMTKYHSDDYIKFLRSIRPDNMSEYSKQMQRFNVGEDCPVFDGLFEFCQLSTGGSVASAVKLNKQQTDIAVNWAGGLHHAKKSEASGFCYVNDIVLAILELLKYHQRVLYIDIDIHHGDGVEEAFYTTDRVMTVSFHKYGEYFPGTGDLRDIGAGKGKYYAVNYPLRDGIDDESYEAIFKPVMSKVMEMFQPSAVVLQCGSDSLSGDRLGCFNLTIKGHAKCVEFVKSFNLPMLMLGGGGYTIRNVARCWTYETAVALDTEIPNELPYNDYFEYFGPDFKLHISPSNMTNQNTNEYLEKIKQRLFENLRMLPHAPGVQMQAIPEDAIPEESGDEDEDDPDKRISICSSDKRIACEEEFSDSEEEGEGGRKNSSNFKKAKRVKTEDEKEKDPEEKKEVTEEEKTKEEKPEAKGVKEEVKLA

IC50 [6]: 368 nM
IC50 (HL-60 [9]): 370 nM
IC50 [11]: 635 nM
AUC(0-inf) [13]: 3780 ng·h/mL
half-life [15]: 16.8 h
IC50 (Histone deacetylase 1): 2510 nM
IC50 (Histone deacetylase 2): 4830 nM
Cmax [22]: 10800 ng/mL
SMILES: CC1(C)C(=O)C(C#N)=C[C@]2(C)[C@H]3C(=O)C=C4[C@@H]5C[C@@](C)(C(=O)N6CCN(c7ccc(NC(=O)CCCCCCC(=O)NO)cc7)CC6)CC[C@]5(C)CC[C@@]4(C)[C@]3(C)CC[C@@H]12
Activity (HL-60 [1]): Active
Activity (HL-60 [2]): 8.05%
Activity (HL-60 [3]): 58.14%
Activity (HL-60 [4]): 2.92%
Activity (HL-60 [5]): 2.51%
Activity (HL-60 [7]): 20.73%
Activity (HL-60 [8]): Active
Activity (HL-60 [10]): 24.55%
Activity (HL-60 [12]): 27.28%
Activity (HL-60 [14]): 65.55%
Activity (HL-60 [16]): 23.9%
Activity (HL-60 [17]): 37.66%
Activity (HL-60 [18]): 40.45%
Activity (HL-60 [19]): 1.17%
Activity (HL-60 [20]): 76.29%
Activity (HL-60 [21]): 3.91%
IC50 (PC-3): 470 nM
Activity (HL-60 [23]): 68.63%
Activity (HL-60 [24]): Active
